The values that follow come from ChEMBL document CHEMBL3797068, “eCF309: a potent, selective and cell-permeable mTOR inhibitor” (Medchemcomm, 2016).

What is called EC50 is the concentration at which the effect is half-maximal. Higher therefore signals a need for much substance. As a reminder, the IC50 is the point on the concentration scale where inhibition reaches its midpoint. What is called inhibition is the drop in the measured response relative to a control, in per cent.

Active and inactive are the calls of the source. The calls are words filed in the database; no cut-off is given here.

Test [1] has as its system MCF7. Nature of the test: Cytotoxicity against human MCF7 cells after 5 days by Presto blue reagent-based fluorescence analysis. In kind it is functional, cell-based. The conditions noted are these: MCF7, 120 h.
In test [2] the test system is MCF7. Nature of the test: Cell cycle arrest in human MCF7 cells assessed as increase in G0/G1 population after 24 hrs by Hoechst 33342 staining-based fluorescence analysis. It counts as functional.
In test [3] the target is Mast/stem cell growth factor receptor Kit (Homo sapiens, UniProt P10721). Nature of the test: Inhibition of human KIT using (poly [Glu, Tyr] 4:1) as substrate assessed as incorporation of 33P in substrate by [gamma33P] ATP-based kinase assay.
The nature of test [4]: Cell cycle arrest in human PC3 cells assessed as increase in G0/G1 population after 24 hrs by Hoechst 33342 staining-based fluorescence analysis. It counts as functional. The conditions noted are these: PC-3.
For test [5], the target named is T1, mTORC1 (Homo sapiens) (UniProt P42345+Q8N122+Q9BVC4). Nature of the test: Inhibition of mTORC1 in human MCF7 cells assessed as reduction in phosphorylated P70S6K at 30 nM preincubated for 30 mins followed by serum stimulation for 1 hr by Western blot analysis. In kind it is cell-based.
In test [6] the target is Phosphatidylinositol 4,5-bisphosphate 3-kinase catalytic subunit alpha isoform (Homo sapiens, UniProt P42336). Nature of the test: Inhibition of human PI3Kalpha at 10 uM by kinome profiling method.
The target of test [7] is T1, mTORC1 (Homo sapiens). Nature of the test: Inhibition of mTORC1 in human MCF7 cells assessed as reduction in phosphorylated S6 preincubated for 30 mins followed by serum stimulation for 1 hr by Western blot analysis. In kind it is cell-based.
Test [8] concerns the target Platelet-derived growth factor receptor alpha (Homo sapiens, UniProt P16234). Nature of the test: Inhibition of human PDGFRalpha using (poly [Glu, Tyr] 4:1) as substrate assessed as incorporation of 33P in substrate by [gamma33P] ATP-based kinase assay.
For test [9], the target named is Proto-oncogene tyrosine-protein kinase Src (Homo sapiens, UniProt P12931). Nature of the test: Inhibition of human SRC using (poly [Glu, Tyr] 4:1) as substrate assessed as incorporation of 33P in substrate by [gamma33P] ATP-based kinase assay.
Test [10] addresses Epithelial discoidin domain-containing receptor 1 (Homo sapiens, UniProt Q08345). Nature of the test: Inhibition of human DDR1 using (poly [Glu, Tyr] 4:1) as substrate assessed as incorporation of 33P in substrate by [gamma33P] ATP-based kinase assay.
Test [11] deals with DNA-dependent protein kinase catalytic subunit (Homo sapiens, UniProt P78527). Nature of the test: Inhibition of human DNA-PK using (poly [Glu, Tyr] 4:1) as substrate assessed as incorporation of 33P in substrate by [gamma33P] ATP-based kinase assay.
Test [12] deals with Phosphatidylinositol 4,5-bisphosphate 3-kinase catalytic subunit beta isoform (Homo sapiens, UniProt P42338). Nature of the test: Inhibition of PI3Kbeta (unknown origin) using PIP2 as substrate by HTRF assay. On the technique in general: In TR-FRET formats the signal depends on donor and acceptor labels being close together.

T1 sequence (Q8N122 whole entry, looked up, other chains not shown, canonical isoform): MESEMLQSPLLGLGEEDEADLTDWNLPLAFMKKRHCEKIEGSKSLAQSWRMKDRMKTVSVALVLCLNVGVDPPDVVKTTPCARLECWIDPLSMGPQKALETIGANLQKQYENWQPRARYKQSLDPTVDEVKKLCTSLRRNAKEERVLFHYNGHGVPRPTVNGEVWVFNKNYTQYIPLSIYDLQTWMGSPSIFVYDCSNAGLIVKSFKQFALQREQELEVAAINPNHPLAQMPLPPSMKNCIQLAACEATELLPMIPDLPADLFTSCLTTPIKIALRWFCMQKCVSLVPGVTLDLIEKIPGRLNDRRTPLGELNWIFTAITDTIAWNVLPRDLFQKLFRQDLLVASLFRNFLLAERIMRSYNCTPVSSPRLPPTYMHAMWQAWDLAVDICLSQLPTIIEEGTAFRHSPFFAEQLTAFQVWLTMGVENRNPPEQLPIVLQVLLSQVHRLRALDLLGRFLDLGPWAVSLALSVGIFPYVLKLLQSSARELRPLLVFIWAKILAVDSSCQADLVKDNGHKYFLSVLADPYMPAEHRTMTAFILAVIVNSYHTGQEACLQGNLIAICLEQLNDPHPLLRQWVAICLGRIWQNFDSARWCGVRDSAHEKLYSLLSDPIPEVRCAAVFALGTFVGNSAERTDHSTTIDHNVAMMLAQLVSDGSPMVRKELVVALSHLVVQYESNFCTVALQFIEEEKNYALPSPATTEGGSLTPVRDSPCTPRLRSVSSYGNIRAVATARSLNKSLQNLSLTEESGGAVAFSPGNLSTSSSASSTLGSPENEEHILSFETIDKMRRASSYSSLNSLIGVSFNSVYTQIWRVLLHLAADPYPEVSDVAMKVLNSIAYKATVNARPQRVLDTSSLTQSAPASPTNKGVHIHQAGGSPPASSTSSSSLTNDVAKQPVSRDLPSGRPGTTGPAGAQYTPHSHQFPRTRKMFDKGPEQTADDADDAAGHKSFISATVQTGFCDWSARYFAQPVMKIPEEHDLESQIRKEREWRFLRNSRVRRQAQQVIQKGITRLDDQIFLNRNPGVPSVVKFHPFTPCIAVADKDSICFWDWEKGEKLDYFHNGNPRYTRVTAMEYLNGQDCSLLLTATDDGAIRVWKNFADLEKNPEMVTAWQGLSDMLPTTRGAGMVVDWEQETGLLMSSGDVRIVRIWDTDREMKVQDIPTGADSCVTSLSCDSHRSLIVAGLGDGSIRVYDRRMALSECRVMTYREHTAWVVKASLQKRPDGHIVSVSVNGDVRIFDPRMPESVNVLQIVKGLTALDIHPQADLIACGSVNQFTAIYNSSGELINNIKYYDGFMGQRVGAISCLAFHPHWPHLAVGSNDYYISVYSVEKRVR
T1 sequence (Q9BVC4 whole entry, looked up, other chains not shown, canonical isoform): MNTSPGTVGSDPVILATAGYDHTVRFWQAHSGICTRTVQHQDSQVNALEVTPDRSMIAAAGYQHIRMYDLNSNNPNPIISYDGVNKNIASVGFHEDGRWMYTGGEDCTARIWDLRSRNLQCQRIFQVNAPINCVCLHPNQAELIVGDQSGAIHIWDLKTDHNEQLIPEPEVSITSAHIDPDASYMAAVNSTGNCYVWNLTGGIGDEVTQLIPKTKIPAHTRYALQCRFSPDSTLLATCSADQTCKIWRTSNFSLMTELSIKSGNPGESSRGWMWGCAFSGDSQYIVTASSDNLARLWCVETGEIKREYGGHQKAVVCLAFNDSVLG
Chain of Phosphatidylinositol 4,5-bisphosphate 3-kinase catalytic subunit alpha isoform (P42336 whole entry, canonical isoform): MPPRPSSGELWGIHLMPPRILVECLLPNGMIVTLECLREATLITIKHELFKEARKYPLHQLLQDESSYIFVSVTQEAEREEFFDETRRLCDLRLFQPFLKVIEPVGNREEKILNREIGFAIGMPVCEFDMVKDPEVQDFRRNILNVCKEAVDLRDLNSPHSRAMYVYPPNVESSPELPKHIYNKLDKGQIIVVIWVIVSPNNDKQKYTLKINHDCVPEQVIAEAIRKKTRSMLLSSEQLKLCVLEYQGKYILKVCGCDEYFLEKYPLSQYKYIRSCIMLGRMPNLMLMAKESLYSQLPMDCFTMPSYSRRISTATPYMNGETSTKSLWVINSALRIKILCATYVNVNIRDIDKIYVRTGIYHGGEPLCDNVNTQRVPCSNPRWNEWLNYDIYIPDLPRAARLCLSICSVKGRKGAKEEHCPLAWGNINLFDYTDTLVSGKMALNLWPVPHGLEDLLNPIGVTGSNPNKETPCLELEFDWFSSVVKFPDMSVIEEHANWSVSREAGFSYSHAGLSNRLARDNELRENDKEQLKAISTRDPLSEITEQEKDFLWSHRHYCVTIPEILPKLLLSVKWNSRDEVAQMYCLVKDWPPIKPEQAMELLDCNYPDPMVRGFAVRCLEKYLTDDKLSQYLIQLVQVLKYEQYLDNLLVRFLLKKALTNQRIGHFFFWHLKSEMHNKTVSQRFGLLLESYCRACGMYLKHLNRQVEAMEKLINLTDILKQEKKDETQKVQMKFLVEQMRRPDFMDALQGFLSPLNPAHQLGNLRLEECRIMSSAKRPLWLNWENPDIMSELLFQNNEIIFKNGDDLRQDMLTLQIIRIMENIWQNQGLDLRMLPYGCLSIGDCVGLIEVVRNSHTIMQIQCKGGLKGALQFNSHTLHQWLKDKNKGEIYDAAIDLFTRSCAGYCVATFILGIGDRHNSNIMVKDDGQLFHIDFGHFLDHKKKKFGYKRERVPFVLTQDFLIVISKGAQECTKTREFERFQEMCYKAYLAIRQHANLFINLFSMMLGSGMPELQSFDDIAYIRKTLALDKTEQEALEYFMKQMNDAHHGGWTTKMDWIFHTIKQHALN
Chain of Platelet-derived growth factor receptor alpha (P16234 whole entry): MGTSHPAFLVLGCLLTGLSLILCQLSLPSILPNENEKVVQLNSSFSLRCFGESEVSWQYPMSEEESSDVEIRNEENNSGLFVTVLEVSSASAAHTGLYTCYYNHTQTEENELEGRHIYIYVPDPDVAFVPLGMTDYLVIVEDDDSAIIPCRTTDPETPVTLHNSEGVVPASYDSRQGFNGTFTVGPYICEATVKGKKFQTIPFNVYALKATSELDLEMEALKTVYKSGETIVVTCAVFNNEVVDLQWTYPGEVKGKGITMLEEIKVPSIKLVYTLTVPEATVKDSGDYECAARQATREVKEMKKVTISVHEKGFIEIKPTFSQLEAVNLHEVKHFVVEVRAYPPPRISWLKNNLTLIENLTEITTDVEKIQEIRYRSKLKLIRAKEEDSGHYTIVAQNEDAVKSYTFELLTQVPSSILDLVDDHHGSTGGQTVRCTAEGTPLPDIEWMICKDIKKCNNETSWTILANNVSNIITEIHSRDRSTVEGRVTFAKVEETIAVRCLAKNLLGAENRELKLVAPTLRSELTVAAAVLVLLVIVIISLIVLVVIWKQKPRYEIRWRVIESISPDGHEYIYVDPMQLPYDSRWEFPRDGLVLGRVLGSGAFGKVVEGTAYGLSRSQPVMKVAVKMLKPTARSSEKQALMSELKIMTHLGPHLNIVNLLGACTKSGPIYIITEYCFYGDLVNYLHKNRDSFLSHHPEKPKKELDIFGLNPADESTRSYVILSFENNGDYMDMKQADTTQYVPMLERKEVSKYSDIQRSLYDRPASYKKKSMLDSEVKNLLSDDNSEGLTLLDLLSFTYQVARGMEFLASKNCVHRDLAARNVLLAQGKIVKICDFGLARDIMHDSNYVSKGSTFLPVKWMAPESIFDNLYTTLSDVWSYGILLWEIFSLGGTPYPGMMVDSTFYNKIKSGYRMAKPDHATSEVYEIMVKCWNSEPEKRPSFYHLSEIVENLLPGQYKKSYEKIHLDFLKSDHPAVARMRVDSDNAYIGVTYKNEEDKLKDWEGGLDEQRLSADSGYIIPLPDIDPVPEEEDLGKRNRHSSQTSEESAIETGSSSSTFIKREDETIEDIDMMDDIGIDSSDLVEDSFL
Chain of Proto-oncogene tyrosine-protein kinase Src (P12931 2-536 limits assumed): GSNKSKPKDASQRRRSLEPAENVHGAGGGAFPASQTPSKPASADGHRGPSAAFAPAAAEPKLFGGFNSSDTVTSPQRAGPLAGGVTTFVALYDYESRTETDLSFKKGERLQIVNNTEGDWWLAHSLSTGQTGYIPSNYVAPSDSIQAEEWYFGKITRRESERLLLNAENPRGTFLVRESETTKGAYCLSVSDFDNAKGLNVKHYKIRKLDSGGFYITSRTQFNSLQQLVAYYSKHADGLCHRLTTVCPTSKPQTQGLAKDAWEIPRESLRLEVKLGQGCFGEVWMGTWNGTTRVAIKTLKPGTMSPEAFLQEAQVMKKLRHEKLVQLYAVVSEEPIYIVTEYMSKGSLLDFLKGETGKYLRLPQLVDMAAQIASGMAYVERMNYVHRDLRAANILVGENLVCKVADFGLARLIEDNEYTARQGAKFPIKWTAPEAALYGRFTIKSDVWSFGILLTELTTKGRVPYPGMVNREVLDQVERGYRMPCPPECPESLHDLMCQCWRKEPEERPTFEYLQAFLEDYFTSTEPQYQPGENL

For the molecule `CCOC(Cn1nc(-c2ccc3oc(N)nc3c2)c2c(N)ncnc21)OCC`, the EC50 in test [1] was 0.008 µM. Further, the result in [2] and in test [4] was Active. For the same molecule, the IC50 in test [3] was above 100 µM; in [8], above 100 µM; in [9], above 100 µM; in test [10], 2.11 µM; in test [11] it was 0.32 µM; in test [12], above 100 µM. The inhibition in test [5] was 100%; in test [6], 65%; in [7], “Dose-dependent effect”.
